Paper PMC3744471, “Mitochondria Are the Target Organelle of Differentiation-Inducing Factor-3, an Anti-Tumor Agent Isolated from Dictyostelium Discoideum” (PLoS ONE, 2013)

Experiments:
HeLa cells [1] = assay: Cell growth assay (Alamar blue), HeLa; type: cell-based, human; conditions: 3 days; for Effect on cell growth (relative cell number): HeLa; for IC50: Homo sapiens, 72 h, HeLa cells, Alamar blue
Experimental: HeLa, LM8, and 3T3-L1 cells were cultured for 3 days at 2.5–5×10^3 cells/well in 12-well plates with each well filled with 1 ml of DMEM-FBS (for HeLa and 3T3-L1) or MEM-α-FBS (for LM8) together with drugs at various concentrations. Then, the incubation media were discarded and the cells were washed with 1 ml of PBS(–) (20 mM phosphate buffered saline, pH 7.4) and incubated with 1 ml of fresh DMEM-FBS (HeLa and 3T3-L1) or MEM-α-FBS (LM8) containing 5% (v/v) of Alamar blue (a cell number indicator; Wako Pure Chemical Industries, Osaka, Japan) until the color changed. […] Relative cell numbers were determined for each concentration for each drug and the IC50 was determined from the dose-response curves.

mouse liver mitochondria = assay: Mitochondrial oxygen consumption (Clark-type oxygen electrode); type: biochemical; conditions: for Effect on basal rate of O2 consumption: 1–100 µM; for PC100 (µM) for Mito. O2 consumption: 100% promoting concentration: doubles the basal rate of oxygen consumption, 30°C
Experimental: Mitochondria were isolated from mouse liver (ICR; 7–10 week-old females) by differential centrifugation as described previously. Cells were homogenized in a Potter glass homogenizer with H-Buffer (250 mM sucrose, 10 mM Tris-HCl pH 7.4), and centrifuged at 800g for 1 min at 4°C. The supernatant was centrifuged at 6,000g for 5 min, and the resulting pellet, the crude mitochondrial fraction, was suspended in H-Buffer. The suspension was layered over a discontinuous sucrose gradient consisting of 1.1 M and 1.6 M sucrose in a Tris buffer (10 mM Tris-HCl pH 7.4), and centrifuged for 3 h at 90,000g at 4°C. The interface was collected in Tris buffer and centrifuged at 6,000g for 5 min. The resulting pellets were suspended in Tris buffer and used for experiments after confirming the presence of the mitochondrial marker cytochrome c.
Mitochondrial oxygen consumption was determined using a Clark-type oxygen electrode (Strathkelvin Instruments Ltd., North Lanarkshire, Scotland) as described, [39]. The mitochondria-enriched fraction was incubated at 30°C in oxygen measurement buffer (225 mM mannitol, 75 mM sucrose, 10 mM KCl, 0.1 mM EDTA, 3 mM phosphate, 5 mM succinate, 5 mM glutamate, and 20 mM Tris-HCl pH 7.4) in the presence or absence of various concentrations of the DIF-like molecules or CCCP. After recording ‘State 4’ of the respiration reaction, an aliquot of ADP was added to a final concentration of 200 µM to induce ‘State 3’. The PC100 (100% promoting concentration) of each additive was defined as the drug concentration that doubled the basal rate of oxygen consumption during State 3, which was calculated from the dose-response plot for the rate of oxygen consumption (Figure 8).

[2] = system: calmodulin-dependent cyclic nucleotide phosphodiesterase (PDE1); set-up: method as in PMID 15059913; conditions: cited from earlier work
HeLa cells [3] = assay: Electron microscopy of organelle morphology; type: cell-based, human; conditions: 3 days, Bu-DIF-3 5 µM, BODIPY-DIF-3 20 µM
Experimental: HeLa cells were incubated for 3 days with 2 ml DMEM-FBS containing 0.2% DMSO and 5 µM Bu-DIF-3 or 20 µM BODIPY-DIF-3 in 35-mm plastic dishes at 2×10^4 cells/dish. The cells were fixed at 4°C for 30 min with PB (0.1 M phosphate buffer, pH 7.4) containing 2% paraformaldehyde and 2% glutaraldehyde and then with PB containing 2% glutaraldehyde at 4°C overnight. The cell samples were rinsed 3 times with PB for 30 min each, followed by post fixation with 2% OsO4 in PB at 4°C for 1 h. The samples were dehydrated through a graded ethanol (EtOH) series starting with 50% and 70% EtOH for 5 min each at 4°C, then 90% EtOH for 5 min at room temperature, followed by three changes of 100% EtOH for 5 min each at room temperature. The samples were then transferred to a resin (Quetol-812; Nisshin EM Co., Tokyo, Japan) and polymerized at 60°C for 48 h. Ultra-thin (70 nm) sections were cut with an ultramicrotome (ULTRACUT UCT; Leica, Wetzlar, Germany), collected onto copper grids, stained with 2% uranyl acetate at room temperature for 15 min, and then rinsed with distilled water. The sections were then stained with Lead stain solution (Sigma-Aldrich) at room temperature for 3 min. The sections were observed under a transmission electron microscope (JEM-1200Ex; JEOL Ltd., Tokyo, Japan) at an acceleration voltage of 80 kV. Digital images (2048×2048 pixels) were taken with a charge-coupled device camera (VELETA; Olympus Soft Imaging Solutions GmbH, Tokyo, Japan).

HeLa cells [4] = assay: Withdrawal of BODIPY-DIF-3: recovery of cell growth and mitochondrial morphology; type: cell-based, human; conditions: 20 µM 3 days, then 2 days DMSO
Experimental: In the assay of the effect of withdrawal of BODIPY-DIF-3 on cell growth (Figure 6A), HeLa cells were incubated for 3 days with 2 ml of DMEM-FBS containing 20 µM BODIPY-DIF-3 in 35-mm tissue culture dishes (Becton Dickinson, Franklin Lakes, NJ, USA) (5×10^3 cells/dish), washed 2 times with 2 ml of PBS(–), and further incubated for 2 days with 2 ml of DMEM-FBS containing 0.2% DMSO or 20 µM BODIPY-DIF-3; meanwhile, control cells were incubated for 5 days with 2 ml of DMEM-FBS containing 0.2% DMSO. Relative cell number was assessed as described above, and all experiments were performed in triplicate.

| Compound | Effect on cell growth (relative cell number) (HeLa cells [1]; 20 µM) | IC50 (HeLa cells [1]) [µM] | Effect on basal rate of O2 consumption (mouse liver mitochondria) | PC100 (µM) for Mito. O2 consumption (mouse liver mitochondria) [µM] | Inhibition of PDE1 [2] | Lipid bodies in treated cells (HeLa cells [3]) | Number of swollen mitochondria (HeLa cells [3]) | Total number of mitochondria (HeLa cells [3]) | Effect on cell growth (relative cell number) (HeLa cells [1]; 5–20 µM (Bu-BODIPY up to 20 µM)) | Reversibility of action after withdrawal at Day 3 (HeLa cells [4]) | Effect on cell growth (relative cell number) (HeLa cells [1]; CCCP 10 µM, azide 0.01%) | Effect on mitochondrial O2 consumption (mouse liver mitochondria; 0.1–1 µM) |
| --- | --- | --- | --- | --- | --- | --- | --- | --- | --- | --- | --- | --- |
| CCCCCC(=O)c1c(O)cc(OC)c(Cl)c1O [DIF-3, 1-(3-chloro-2,6-dihydroxy-4-methoxyphenyl)hexan-1-one] | significantly suppressed | 14.5 | dose-dependently promoted | 12 | direct inhibitors of PDE1 | – | – | – | – | – | – | – |
| CCCCCC(=O)c1c(O)cc(OCCCC)c(Cl)c1O [Bu-DIF-3, 1-(3-chloro-2,6-dihydroxy-4-butoxyphenyl)hexan-1-one] | significantly suppressed | 3.2 | dose-dependently promoted | 1.7 | – | many lipid bodies were observed | increase in the number of swollen mitochondria | tended to cause a decrease | – | – | – | – |
| CCCCCC(=O)c1c(O)cc(OCCCCNC(=O)CCC2=[N+]3C(=Cc4c(C)cc(C)n4[B-]3(F)F)C=C2)c(Cl)c1O [BODIPY-DIF-3] | – | 13.2 | dose-dependently promoted | 25 | – | many lipid bodies were observed | increase in the number of swollen mitochondria | tended to cause a decrease | suppressed in a dose-dependent manner | reversible | – | – |
| N#CC(C#N)=NNc1cccc(Cl)c1 [CCCP, carbonyl cyanide m-chlorophenylhydrazone, reference compound] | – | 5.2 | – | 0.43 | – | – | – | – | – | – | significantly suppressed | promoted mitochondrial O2 consumption in a dose-dependent manner |
